Measured values from ChEMBL document CHEMBL1157539, “Thousands of chemical starting points for antimalarial lead identification” (Nature, 2010).

What follows are compounds tested on Plasmodium falciparum (assay: GSK_TCMDC: Inhibition of Plasmodium falciparum 3D7 in whole erythrocytes, using parasite LDH activity as an index of growth.). Details: not given.
Type: functional, organism-based

Compound `O=C(Nc1ccccc1Cl)NC1CCC(CN2CCC(c3c[nH]c4ccccc34)CC2)CC1` (stereo not given) has an XC50 of 753 nM.

Same assay, conditions: Plasmodium falciparum, 3D7

Point of comparison: `COCCNCc1cccc(-c2ccccc2CN(C(=O)c2ccc3c(c2)OCO3)c2ccc(OC)cc2)c1`, XC50 1110 nM. Against it:
- COC(=O)c1cccc(CNCc2cccc(-c3ccc(-c4nc5ccccc5[nH]4)cc3)c2)c1 — 3.1-fold lower, 354 nM
- CC(=O)OC[C@H]1O[C@@H](C#Cc2ccccc2)[C@H](OC(C)=O)[C@@H](OC(C)=O)[C@@H]1OC(C)=O — 3.9-fold lower, 283 nM
- O=C(Cc1cccs1)NC(CCCN1CCC(Oc2cccc(Cl)c2)CC1)c1ccc(Cl)c(Cl)c1 (stereo not given) — 4.5-fold lower, 247 nM
- CC1CCN(CC[C@H]2CCCN2S(=O)(=O)c2cccc(NC(=O)Nc3ccc(C(F)(F)F)cc3)c2)CC1 — 1.5-fold lower, 722 nM
- Cc1cc(N/N=C/c2ccccc2[N+](=O)[O-])c2cc(F)ccc2n1 — 1.7-fold lower, 665 nM
- OC(CN1CCN(Cc2ccccc2)CC1)Cn1c(-c2ccccc2)c(-c2ccccc2)c2ccccc21 (stereo not given) — 1.6-fold lower, 711 nM
- N#Cc1ccc(/C=C/C(=O)NCCCCCN2CCN(C(=O)Nc3ccc(Cl)c(C(F)(F)F)c3)CC2)cc1 — within 1.5-fold, 780 nM
- O=C(Nc1ccccc1F)NC1CCN(c2ccnc(Nc3ccc(F)cc3)n2)CC1 — within 1.5-fold, 754 nM
- CS(=O)(=O)NCCCNCc1ccc(-c2ccc(-c3nc4cc(F)ccc4[nH]3)s2)cc1 — within 1.5-fold, 811 nM
- CC(CCc1ccc(OCc2ccccc2)cc1)NCC(O)c1ccccc1 (stereo not given) — within 1.5-fold, 1100 nM
- Cc1cc(=NN=Cc2ccc(Cl)cc2)c2cc(F)ccc2[nH]1 — within 1.5-fold, 828 nM
- c1ccc(COc2ccccc2COc2ccccc2-c2ccc3cccnc3n2)cc1 — within 1.5-fold, 921 nM
- Cc1cc(-c2c[nH]c3ncc(-c4cccc5ncccc45)cc23)ccc1C(=O)O — within 1.5-fold, 761 nM
- CSc1nc2nc(C)c(Cc3cccc(C(F)(F)F)c3)c(C)n2n1 — 5.8-fold lower, 193 nM
- O=S(=O)(Nc1cc2c(cc1O)CCN(C1CCC1)CC2)c1ccc(-c2ccc(F)cc2)cc1 — 2.7-fold lower, 417 nM
- COc1ccc2nc3cc(Cl)ccc3c(NCc3ccccc3)c2c1 — within 1.5-fold, 866 nM
- Nc1ccc(-c2ccc3ccnc(N)c3c2)cc1 — 1.6-fold lower, 682 nM
- CCCCC1(c2ccc(F)cc2)NC(=O)N(CC(=O)c2cc(C)n(Cc3ccco3)c2C)C1=O (stereo not given) — within 1.5-fold, 983 nM
- COc1ccc(C(C(=O)NC2CCN(C[C@H](O)c3ccnc4ccc(OC)cc34)CC2)N2CCN(c3ccc(F)cc3)CC2)cc1 (stereo not given in full) — 5.2-fold lower, 214 nM
- COc1ccccc1-c1cccc(CNC2CCN(CC3Cn4c(=O)ccc5ccc(F)c3c54)CC2)c1 (stereo not given) — within 1.5-fold, 1380 nM
- COc1ccc2ncc(C#N)c(CCN3CCC(NCc4cnc5c(c4)OCCO5)CC3)c2n1 — 1.9-fold lower, 595 nM
- Cc1cc(=O)c(-c2ccc(OCCSc3ccc(C(F)(F)F)cn3)cc2)c(C)[nH]1 — 2.1-fold lower, 527 nM
- CC(Oc1cccc(Cl)c1)C(=O)N1CCc2ccccc21 (stereo not given) — 2.2-fold lower, 512 nM
- Clc1ccccc1CCNCC1CCN(CC2CCCCC2)CC1 — 1.6-fold lower, 692 nM
- Cc1cccc(NC(=O)N(Cc2cc3cc(C)cc(C)c3[nH]c2=O)C2CC2)c1 — 3.3-fold lower, 336 nM
- CCCCCCCN1CC[C@@H](CCCc2ccnc3ccc(OC)cc23)[C@@H](CCN)C1 — within 1.5-fold, 748 nM
- CCOc1cc2ccccc2cc1CNCCCCCCNCc1cc2ccccc2cc1OCC — within 1.5-fold, 979 nM
- O=C(/C=C/c1ccc(Cl)c(Cl)c1)NCCCCCN1CCCC(C(=O)Nc2ccc(F)c(Cl)c2)C1 (stereo not given) — within 1.5-fold, 903 nM
- CCOc1ccc(C(C)NC(=O)Nc2ccccc2)cc1OCC (stereo not given) — within 1.5-fold, 901 nM
- Cc1cccc(Oc2cccc3[nH]nc(N)c23)c1 — within 1.5-fold, 1040 nM
- CN1CCCN(c2ccnc3cc4c(cc23)N(C(=O)c2ccc(Cl)c(Cl)c2)CC4)CC1 — within 1.5-fold, 870 nM
- Cc1cccc2nc(-c3ccc(-c4ccc(CNCCNC(=O)c5ccnn5C)cc4)s3)[nH]c12 — 3.6-fold lower, 308 nM
- N=C(N)c1ccc2[nH]c(-c3cc4cc(C(=N)N)ccc4o3)cc2c1 — 6.2-fold lower, 179 nM
- Cc1cc(=NN=Cc2ccc(F)cc2)c2ccc(F)cc2[nH]1 — within 1.5-fold, 950 nM
- CC(C)CCNC(=O)C1Cc2c([nH]c3cc(Br)ccc23)C2(CCN(Cc3ccccc3)CC2)N1 (stereo not given) — within 1.5-fold, 792 nM
- CCOC(=O)c1cc(C(=O)OC)c2ccccn12 — 5-fold lower, 223 nM
- Cc1cc(=NN=Cc2ccccn2)c2cc(C(F)(F)F)ccc2[nH]1 — 1.8-fold lower, 621 nM
- CCCCCOc1ccc(C=NNc2nc(O)cc(-c3ccccc3)n2)cc1 — within 1.5-fold, 887 nM
- Cc1ccc2c(OCCN3CCC(Cc4cc5c(cc4F)OCC(=O)N5)CC3)cc(F)cc2n1 — 1.8-fold lower, 631 nM
- CCn1c(-c2nc(-c3ccnc(N4CCN(C)CC4)c3)cnc2N)nc2cc(S(C)(=O)=O)ccc21 — within 1.5-fold, 815 nM
- CCSc1ccc(C)cc1CON1C(N)=NC(N)=NC1(C)C — 350-fold lower, 3.2 nM
- O=C(Nc1ccc(Oc2ccccc2)cc1)NC1CCC(CN2CCC(c3c[nH]c4ccccc34)CC2)CC1 (stereo not given) — 1.9-fold lower, 573 nM
- COc1ccc(C)c(Nc2ccnc(Nc3ccc(-c4cnc[nH]4)cc3)n2)c1 — within 1.5-fold, 1370 nM
- COc1ccc(NC(=O)NC2CCN(c3ccnc4cc(Cl)ccc34)C2)cc1 (stereo not given) — 11-fold lower, 99.3 nM
- CC(C)C(C(=O)Nc1ccc(S(=O)(=O)N(C)C)cc1)c1ccc(Cl)cc1 (stereo not given) — within 1.5-fold, 937 nM
- NC[C@H](CC1CCCCC1)NC(=O)c1ccc(-c2ccnc3[nH]ccc23)s1 — within 1.5-fold, 950 nM
- COc1ccc2nccc([C@@H](O)CN3CCC(NCCOc4ccc(F)cc4[N+](=O)[O-])CC3)c2c1 — 9.6-fold lower, 116 nM
- CC12CC3CC(C)(C1)CC(Nc1nc(N4CCOCC4)nc4ccccc14)(C3)C2 — within 1.5-fold, 938 nM
- CCCN(C(=O)c1ccccc1C)c1nnc(-c2cccc(C)c2)s1 — within 1.5-fold, 896 nM
- COc1ccccc1CCNc1nc(C)cc(N[C@@H](Cc2ccccc2)C(=O)NCc2cccc(F)c2)n1 — within 1.5-fold, 867 nM
- CC1(C)CC(NCCCCCCCOc2ccc(OCc3ccccc3)cc2)CC(C)(C)N1 — within 1.5-fold, 827 nM
- CN1CCN(c2nsc3ccc(-c4ccc(OCCN5CCCC5)cc4)cc23)CC1 — within 1.5-fold, 826 nM
- N#Cc1ccc(N(CC(=O)NCCc2ccc(F)cc2)CC2CC2)c2ccccc12 — within 1.5-fold, 932 nM
- Cc1nc(C)c(-c2ccc(Oc3ccc(Cl)c(Cl)c3)cc2)c(O)c1Br — 3.7-fold lower, 304 nM
- CC(C)(Oc1c(C2CCN(CCCCNC(=O)c3ccc(-c4ccc(Cl)cc4)cc3)CC2)ccc2c1CCCC2)C(N)=O — within 1.5-fold, 1090 nM
- O=C(Nc1cc(Cl)cc(Cl)c1)Nc1ccnc2ccccc12 — within 1.5-fold, 745 nM
- Cc1[nH]c2ccc(-c3ccc(N(C)C)cc3)cc2c(=O)c1Cl — 1.5-fold lower, 720 nM
- CCC(C)NC(=O)Nc1ccc(-c2cccc(-c3nc4cc(C(F)(F)F)ccc4[nH]3)c2)cc1 (stereo not given) — 1.8-fold lower, 624 nM
- N=C(N)Nc1nc(-c2ccc(NCc3ccc(CNc4cccc(-c5csc(NC(=N)N)n5)c4)cc3)cc2)cs1 — 3.6-fold lower, 310 nM
- CC(C)(C)c1ccc(NC(=O)c2ccc(CN3CCCN(Cc4cccc(Cl)c4)CC3)cc2)cc1 — within 1.5-fold, 972 nM
- Cc1cnc(Nc2cccnc2)nc1Nc1ccccc1C(=O)NC(C)C — within 1.5-fold, 1200 nM
- Cn1c(N)c(C(=O)CSc2ncc(-c3ccc(F)cc3)n2Cc2ccccc2)c(=O)n(C)c1=O — 2-fold lower, 569 nM
- COc1ccc(CNCc2ccccc2)cc1-c1cccc(S(=O)(=O)NCCN2CCCC2)c1 — within 1.5-fold, 786 nM
- COc1ccc(-c2csc(NC(=O)CCC(=O)O)n2)cc1OC — within 1.5-fold, 842 nM
- CCC[C@@H]([C@@H](CC(C)C)C(=O)N[C@H](C(=O)Nc1nccs1)C(C)(C)SCCNC(=O)OCC)N(O)C=O — 6.4-fold lower, 173 nM
- Cc1noc(C)c1-c1cccc(CNCc2cccc(-c3cccc(-c4nc5cc(C(F)(F)F)ccc5[nH]4)c3)c2)c1 — 2.4-fold lower, 456 nM
- O=C(/C=C/c1ccc(Cl)c(Cl)c1)N1CCC(CCN2CCC(c3c[nH]c4ccccc34)CC2)CC1 — 1.8-fold lower, 602 nM
- O=C(Nc1ccccc1)c1c[nH]cn1 — within 1.5-fold, 991 nM
- Clc1cc(Cl)c2cc(CNCCCNc3ccc4ccccc4n3)[nH]c2c1 — 3.3-fold lower, 339 nM
- COc1cccc(NC(=O)Nc2ccc(Nc3nc(C)cc(N(C)C)n3)cc2)c1 — 6.6-fold lower, 169 nM
- CCN1CCC(N(Cc2ccc(-c3ccc(C(F)(F)F)cc3)cc2)C(=O)Cn2nc(C)c(=O)cc2SCc2ccc(F)cc2)CC1 — within 1.5-fold, 1010 nM
- COc1ccc(-c2cccc(NC(=O)c3cccc(Cl)c3)c2)cc1CN1CCN(C)CC1 — within 1.5-fold, 760 nM
- CCCc1cc(=O)[nH]c(-n2nc(C)cc2NC(=O)C(CC)c2ccccc2)n1 (stereo not given) — within 1.5-fold, 944 nM
- CCOC(=O)c1cnc2c(C(F)(F)F)cccc2c1Nc1ccc(O)cc1 — 1.8-fold lower, 632 nM
- CCNc1cc(C(=O)N[C@@H](Cc2ccccc2)[C@H](O)CNC2CCCC2)cc(N2CCCC2=O)c1 — 13-fold lower, 83.4 nM
- Nc1cccc(CNCc2ccc(-c3ccc(-c4nc5cc(C(F)(F)F)ccc5[nH]4)s3)cc2)c1 — 2.5-fold lower, 438 nM
- CC(Cc1ccc(NC(=O)CCNCc2ccccc2)cc1)NCCc1cccc(Cl)c1 (stereo not given) — 7.6-fold lower, 147 nM
- COc1ccc2ccccc2c1C=NNc1ccnc2cc(Cl)ccc12 — 1.8-fold lower, 615 nM
- CCCNCc1ccc(-c2ccc(CN(CCOC)C(=O)c3ccc([N+](=O)[O-])c(C)c3)cc2)nc1 — within 1.5-fold, 868 nM
- O=C(CCC1CCCCC1=O)c1ccccc1 (stereo not given) — within 1.5-fold, 766 nM
- CCCCCCN1CCCN(Cc2ccc(C(=O)Nc3ccc(C)c(F)c3)cc2)CC1 — 3.4-fold lower, 331 nM
- FC(F)(F)c1ccc2[nH]c(-c3cccc(-c4cccc(CN5CCN(c6ccncc6)CC5)c4)c3)nc2c1 — 7-fold lower, 158 nM
- COC(=O)C(C)(C)c1ccc(CC(C)NCC(O)c2cccc(C(F)(F)F)c2)cc1 (stereo not given) — within 1.5-fold, 837 nM
- COc1cc(C)nc2ccc(NC(=O)c3ccc(C(=O)Nc4ccc5nc(C)cc(OC)c5c4)cc3)cc12 — 18-fold lower, 63.3 nM
- CN1CCc2cc(NS(=O)(=O)c3ccc(-c4ccc(Cl)s4)cc3)c(N3CCCCC3)cc2CC1 — 1.5-fold lower, 727 nM
- CC(C)CNC(=O)c1ccnc(-c2ccc(CNC3Cc4ccccc4C3)cc2)c1 — within 1.5-fold, 790 nM
- O=C(Nc1ccccc1Cl)NC1CCC(CN2CCC(c3c[nH]c4ccccc34)CC2)CC1 (stereo not given) — within 1.5-fold, 803 nM
- O=C(NCCCCN1CCC(c2ccc3c(c2OCCO)CCCC3)CC1)c1ccc(-c2ccc(C(F)(F)F)cc2)cc1 — within 1.5-fold, 855 nM
- Cc1cccc2nc(-c3ccc(-c4ccc(CN5CCN(c6ccncc6)CC5)cc4)s3)[nH]c12 — 9.7-fold lower, 114 nM
- CC(C)NC(C)(C)CN(Cc1ccc(-c2ccc(C(F)(F)F)cc2)cc1)C(=O)Cn1c(CCc2cccc(F)c2F)nc(=O)c2ccccc21 — within 1.5-fold, 908 nM
- NC(=O)c1sc(-n2cnc3ccccc32)cc1OCc1ccccc1[N+](=O)[O-] — 1.6-fold lower, 702 nM
- COc1ccc(-c2cccc(NC(=O)c3ccc(Cl)cc3)c2)cc1CN1CCCC1 — within 1.5-fold, 778 nM
- CCC(NCc1ccc(-c2cncc(C(=O)NCC(C)C)c2)cc1)c1ccccc1 (stereo not given) — within 1.5-fold, 944 nM
- COc1cc(C=Cc2ccc3ccccc3n2)cc(Br)c1OCC(=O)N(C)C — within 1.5-fold, 1100 nM
- CCOc1ccc(C2CCN(CCCCNC(=O)c3ccc(NC(=O)c4ccc(Cl)cc4)cc3)CC2)c(Cl)c1 — 1.5-fold lower, 731 nM
- c1cc(CNCCc2ccncc2)cc(-c2csc(-c3nc4ccccc4[nH]3)c2)c1 — 4.3-fold lower, 258 nM
- CN(C)CCCNCc1ccc(-c2ccc(F)c(Cl)c2)o1 — within 1.5-fold, 802 nM
- CNC(=O)COC(=O)c1c2c(nc3ccccc13)C(=Cc1ccc3c(c1)OCO3)CCC2 — 1.7-fold lower, 643 nM
